Test results from paper PMC5012908 (Acta biomaterialia, 2016).

How the values were obtained:
[1] = Circular dichroism of β-peptide solutions; format: physicochemical; details: 0.1 mM peptide, 20 °C, consistent with 14-helicity without aggregation
[2] = read-out: IC50 (antifungal); isotonic glucose phosphate buffer; cited from earlier work

| Substance | CD minimum in methanol [1] [nm] | IC50 [2] [nM] |
| --- | --- | --- |
| Coumarin-linker-(ACHC-β^3hVal-β^3hLys)3 [β-peptide 1] | 214 |  |
| magainin-2 |  | 300 |
